The text below walks through data of patent publication US20250281496A1, “METHODS OF TREATING NEUROPATHY USING FORETINIB AND COMPOSITIONS THEREOF” (INDIANA UNIVERSITY RESEARCH AND TECHNOLOGY CORPORATION, priority 2022, published 2025).

Series [1] deals with wt and Sod1^G93A cultured mouse MN. The series can be described thus: Survival of trophic factor-deprived cultured mouse motor neurons. The class given is cell-based.
A short description of series [2]: Pharmacokinetics: blood plasma concentration after single IP injection, mass spectrometry. The class given is in vivo, mice. The method, then: A) Quantitative representation of changes in mouse body weight in dependence of the indicated IP daily doses of Foretinib (n=2 per dose). B) Changes in mouse blood plasma concentration of 5 mg/kg IP injected Foretinib during 48 hours after a single injection (n=3).
It is expected that Foretinib will protect against the diabetes-induced loss of terminal axons and ensheathing SC. In our previous study, 30 mg/kg of foretinib was administered via daily gavage for a course of 5 weeks. Although reported as non-toxic, at this dose the drug, along with a strong neuroprotective effect, caused lethargic behavior, ruffled fur and weight loss requiring early termination of the experiment. Due to the substantial prevalence of type 2 diabetes, we will examine the effect of foretinib treatment on type 2 diabetic mice (db/db). To define the maximal tolerable dose, we treated wt mice by daily intraperitoneal (IP) injection of several various dosages of foretinib for 20 days, while assessing the mice weight and behavior. […] Next, to define the pharmacokinetic (PK) characteristics of the drug, we performed a mass spectrometry analysis of blood samples from wt mice treated with 5 mg/kg (n=3 mice per dose per time point). We observed that IP injection of 5 mg/kg of foretinib generated nearly 100 ng/ml blood concentration during first 4 hours, declining by 4 ng/ml/hour (FIG. 7B).

For the molecule `COc1cc2c(Oc3ccc(NC(=O)C4(C(=O)Nc5ccc(F)cc5)CC4)cc3F)ccnc2cc1OCCCN1CCOCC1` [Foretinib, N1-[3-Fluoro-4-({6-methoxy-7-[3-(morpholin-4-yl)propoxy]quinolin-4-yl}oxy)phenyl]-N′1-(4-fluorophenyl)cyclopropane-1,1-dicarboxamide], in series [1], the “survival of trophic factor-deprived motor neurons” value is “induced survival”. Besides, the “decline of blood concentration” value in series [2] (5 mg/kg IP single injection, after first 4 hours) is 4 ng/mL/h. Moreover, the “blood concentration during first 4 hours” value in series [2] (5 mg/kg IP single injection, wt mice, n=3) was about 100 ng/mL. Further, the “blood concentration expressed in molar units” value in series [2] (5 mg/kg IP, conversion of 100 ng/ml) was 160 nM.
